In PubChem BioAssay AID743395 (Broad Institute, 2014):
Several values for one entry are separate records, joined by “and”; a condition that tells them apart may be missing. Equal entries are not always repeated.

Tested on: HepG2 viability, CellTiter-Glo ATP luminescence, 72 h
Assay: viability loss in human hepatoma cells – cell-based, CellTiter-Glo luminescence, cherry-pick, set 2, cytotoxicity control, dose response (AID 743395)

SMILES	AC35
COc1cccc2c1C(=O)c1c(O)c3c(c(O)c1C2=O)CC(O)(C(C)=O)CC3OC1CC(N(C)C)C(O)C(C)O1 (stereo unspecified)	0.0849 µM
Cc1ccc(Nc2nc(-c3sc(C)nc3C)cs2)cc1	3.7 µM
O=C(NCCOc1ccccc1)c1cc([N+](=O)[O-])ccc1N1CCOCC1	6.79 µM
CCSC(=O)N1c2ccc(OC)cc2C=CC1C#N (stereo unspecified)	7.54 µM
CO/N=C\CC(=O)Nc1ccc(Cl)cc1Cl	16.1 µM
CC(=O)NC(c1ccc(Cl)cc1)c1ccc2cccnc2c1O (stereo unspecified)	2.14 µM
COc1ccccc1NC(=S)NN=C(C)c1ccccn1	0.0927 µM
COc1ccc([N+](=O)[O-])cc1Nc1c2ccccc2nc2ccccc12	18.4 µM
NC(=S)NN=Cc1nccc2c(N)cccc12	4.16 µM
O=C(Nc1ccc(OC(F)(F)F)cc1)c1ccc2c(c1)no[n+]2[O-]	17.6 µM
CCOC(=O)c1c(NC(=O)C2c3ccccc3Oc3ccccc32)sc(C(C)=O)c1C	17.6 µM
CN1c2ccc(-c3ccc(F)cc3)cc2[C@H]2[C@H](CCN2S(=O)(=O)c2ccc(F)cc2)[C@@H]1CO	20.9 µM
CCCC(=O)NC(c1ccc(C(C)C)cc1)c1ccc2cccnc2c1O (stereo unspecified)	0.948 µM
COc1c(C=O)c2c(c(OC)c1OC)-c1ccc(OC)c(=O)cc1C(NC(C)=O)CC2 (stereo unspecified)	3.12 µM
CC1(S(=O)(=O)O)CC(=O)c2ccccc2C1=O (stereo unspecified)	20.1 µM
Cc1ccnc(N2C(=O)c3cccc4c([N+](=O)[O-])ccc(c34)C2=O)c1	14.9 µM
O=C(C1CCCCC1)N1CC(=O)N2[C@@H](CO)[C@H](c3ccc(C#Cc4cccc(F)c4)cc3)[C@@H]2C1	16.4 µM
CC(C)(C)c1ccc(/C=C/C(=O)c2ccc(NC3=NCCCS3)cc2)cc1	18.2 µM
CCN(CC)CCC(=O)Nc1cccc2c1C(=O)c1ccccc1C2=O	6.39 µM
Cc1cc(Br)cc(/C=N/NC(=O)c2ccc3c(c2)OCO3)c1O	8 µM
CCOc1ccc(C(=O)COC(=O)Cc2n[nH]c(=O)c3ccccc23)cc1	19.3 µM
N#Cc1c(-c2ccc(F)cc2)c(-c2ccc(F)cc2)nn(CCO)c1=O	4.03 µM
COc1ccc(C2=Nn3c(nnc3-c3ccccc3F)SC2)cc1OC1CCCC1	11.1 µM
O=C(c1cccc(F)c1)N1CC(=O)N2[C@@H](CO)[C@@H](c3ccc(C#Cc4ccc(F)cc4)cc3)[C@@H]2C1	17.9 µM
CCC1=C(CC2NCCc3ccccc32)CC2c3cc(OC)c(OC)cc3CCN2C1 (stereo unspecified)	18.2 µM
COc1ccc(CN(C)C[C@H]2OCCCC[C@H](C)Oc3ccc(NC(=O)Nc4ccc(C(F)(F)F)cc4)cc3C(=O)N([C@H](C)CO)C[C@H]2C)cc1	10.1 µM

SMILES	AC35
C[C@@H]1CN([C@H](C)CO)S(=O)(=O)c2ccc(-c3ccccc3)cc2O[C@H]1CN(C)Cc1ccccn1	16.7 µM
O[Si](CCCN1CCCCC1)(c1ccc(F)cc1)C1CCCCC1 (stereo unspecified)	10.3 µM
O=C(N=Nc1c(O)[nH]c2ccc(Br)cc12)c1ccccc1-n1cccc1	13.1 µM
Cc1cc(NCc2ccccn2)n2ncc(-c3ccccc3)c2n1	7.75 µM
COC(C(=O)C(O)C(C)O)C1Cc2cc3cc(OC4CC(OC5CC(O)C(O)C(C)O5)C(O)C(C)O4)c(C)c(O)c3c(O)c2C(=O)C1OC1CC(OC2CC(OC3CC(O)C(OC)C(C)O3)C(O)C(C)O2)C(O)C(C)O1 (stereo unspecified)	0.148 µM
Oc1ccc2ccccc2c1C=NNc1ccccn1	7.59 µM
CC(=O)c1cccc(-c2ccnc3c2CC(C(=O)NCc2ccco2)O3)c1 (stereo unspecified)	6.09 µM
COc1ccc(OC)c(Nc2cc(C)nc3ccc(C)cc23)c1	2.93 µM
CCc1ccc(OCCNc2cc(N3CCNC(C)C3)ccc2[N+](=O)[O-])cc1 (stereo unspecified)	9.58 µM
O=C(N/N=C/c1c(O)ccc2ccccc12)c1ccc(CO)nc1	5.89 µM
C/C(=N\Nc1ncnc2sc(C)c(C)c12)c1ccccn1	0.572 µM
COc1ccc(C2CC(c3cccc(Br)c3)=NN2c2ccc(S(N)(=O)=O)cc2)cc1 (stereo unspecified)	18.1 µM
Cc1ccc(-c2ccc3c(c2)O[C@H](CN(C)Cc2ccccn2)[C@@H](C)CN([C@H](C)CO)S3(=O)=O)cc1	13.8 µM
COc1ccccc1N=C1SC(C(=O)Nc2cccc(Cl)c2Cl)C(N)=C1C(N)=O (stereo unspecified)	18.4 µM
Cc1ccc(C2NC(=O)c3ccccc3N2)c(C)c1 (stereo unspecified)	13.8 µM
COc1cccc(/C=N/NC(=O)C(=O)Nc2ccccc2OC(F)(F)C(F)F)c1O	15 µM
COCC(=O)N1CC2(CCN(Cc3ccccc3)CC2)c2c([nH]c3cc(OC)ccc23)[C@H]1CO	5.27 µM
COc1cccc2c1C(=O)c1c(O)c3c(c(O)c1C2=O)C[C@@](O)(C(C)=O)C[C@@H]3O[C@H]1C[C@H](N)[C@H](O)[C@H](C)O1	0.156 µM
COc1ccc2noc3c2c1C(=O)c1ccccc1-3	15.4 µM
CCOC(=O)c1ccc(N2CCOCC2)c(NC(=O)c2c(-c3ccccc3)noc2C)c1	3.87 µM
CCOc1ccc(NC(=O)c2cc(OC)nc3ccccc23)cc1	14.3 µM
COc1cc(C(=O)Nc2ccccc2C(=O)Nc2ccccn2)cc(OC)c1OC	4.9 µM
CN(C)CCCNc1c2ccccc2nc2ccccc12	0.794 µM
COc1ccc(-c2ccnc(-c3ccc(O)cc3)n2)cc1	10.1 µM
C/C(=N\NC(=O)c1cc(-c2cccs2)nc2ccccc12)c1ccccn1	1.63 µM
Cc1ccccc1-c1nc(CS(=O)(=O)CC(=O)NCc2ccccc2)c(C)o1	18.4 µM

SMILES	AC35
COc1cccc(Nc2nc(-c3sc(NC(=O)c4ccccc4)nc3C)cs2)c1	6.58 µM
COc1ccc(CCNc2ncnc3c2oc2ccccc23)cc1OC	11.3 µM
C[C@H]1CN([C@@H](C)CO)C(=O)Cc2cc(NC(=O)Nc3ccc(C(F)(F)F)cc3)ccc2O[C@H]1CN(C)S(=O)(=O)c1ccccc1	10.1 µM
CCOC(=O)c1sc(Nc2nc(C)cc(C)n2)nc1C	11.3 µM
CC(=O)NC(c1ccc2ccccc2c1)c1ccc2cccnc2c1O (stereo unspecified)	0.641 µM
COc1cc(OC)c(-c2c3cc(O)c(=O)cc-3oc3cc(O)c(O)cc23)cc1OC	13.2 µM
Cn1cccc1/C=C1\SC(=Nc2ccccc2)NC1=O	4.22 µM
Cc1ccc2c(c1)CCCN2C(=O)CCc1nc2ccccc2c(=O)[nH]1	7.93 µM
NS(=O)(=O)c1ccc(CCNc2nn3c(-c4cccc(OC(F)(F)F)c4)cnc3s2)cc1	16.7 µM
Cc1ccc(N(C)S(=O)(=O)c2ccc(-c3cnc(C4CC4)o3)cc2)cc1	8.88 µM
CC(C)Oc1ncnc2c1[nH]c1ccccc12	8.5 µM
O=C(C[C@@H]1CC[C@@H]2[C@H](COC[C@H](O)CN2Cc2ccc(Oc3ccccc3)cc2)O1)N1CCN(c2ccccc2)CC1	7.84 µM
O=C(N/N=C\c1c(O)ccc2ccccc12)c1cncc(Br)c1	1.18 µM
COc1cc(C(=O)Nc2ccc3c(c2)ncn3C)cc(OC)c1OC	14.5 µM
COc1ccc(C2=Nn3c(nnc3-c3ccccc3F)SC2)cc1OC1CCOC1 (stereo unspecified)	13.2 µM
Cc1ccc2[nH]c(C(=O)N/N=C/c3ccccc3O)c(C)c2c1	2.41 µM
COc1cc(/C=C(\C#N)c2nc3ccccc3[nH]2)cc(OC)c1O	17.2 µM
CN(Cc1ccccc1)S(=O)(=O)c1ccc(NC(=S)NC(=O)C2CCCC2)cc1	9.62 µM
CN1C(=O)NC(=O)C2(CCCC2)C1=O	9.42 µM
COCCCN=C1NN=C(c2cc(C)n(Cc3ccco3)c2C)CS1	6.71 µM
CCCn1c(CN2CCN(C(=O)OCC)CC2)nc2cc(NC(=O)CC)ccc21	18.9 µM
Cc1cc(/C=N/n2c(COc3ccccc3C)nc3ccccc3c2=O)c(O)c([N+](=O)[O-])c1	8.05 µM
C[n+]1c2cc(N)ccc2cc2ccc(N)cc21	1.17 µM and 2.2 µM
CCOc1ccc2[nH]c(C(=O)N/N=C/c3ccc(OC)cc3)cc2c1	4.77 µM
